In one data set the target is T1, γ-secretase (Homo sapiens, UniProt P49768).
T1 construct: HEK293 membrane fraction as a source of γ-secretase
The data set can be described thus: in vitro assay of γ-secretase activity (HEK293 membrane fraction, recombinant APP substrate, Abeta ELISA). In kind it is biochemical. The note with it: for Comments: potency (and THESA solubility) of the present example compared with the corresponding example from WO 2005/023772. From the text:
Description of γ-secretase Assay
The activity of test compounds can be evaluated in assays which measure the proteolytic cleavage of suitable substrates by γ-secretase activity. These can be cellular assays where e.g., a substrate of the γ-secretase is fused in its cytoplasmic domain to a transcription factor. Cells are transfected with this fusion gene and a reporter gene, e.g., firefly luciferase, which expression is enhanced by the transcription factor. Cleavage of the fused substrate by γ-secretase will lead to expression of the reporter gene which can be monitored in appropriate assays. The γ-secretase activity can also be determined in cell-free in vitro assays where e.g., a cell lysate containing the γ-secretase complex is incubated with a suitable APP-derived substrate which is cleaved to the Abeta peptides. The amount of produced peptides can be determined with specific ELISA assays. Cell lines of neuronal origin secrete Abeta peptides which can be measured with the specific ELISA assay. Treatment with compounds which inhibit γ-secretase leads to a reduction of secreted Abeta thus providing a measure of inhibition.
The in vitro assay of γ-secretase activity uses a HEK293 membrane fraction as a source of γ-secretase and a recombinant APP substrate. Latter consist of the C-terminal 100 amino acids of human APP fused to a 6×Histidin tail for purification which is expressed in E.coli in a regulatable expression vector, e.g. pEt15. This recombinant protein corresponds to the truncated APP fragment which results after […] of the extracellular domain and which constitutes the γ-secretase substrate. The assay principle is described in Li Y M et al, PNAS 97(11), 6138-6143 (2000). Hek293 cells are mechanically disrupted and the microsomal fraction is isolated by differential centrifugation. The membranes are solubilized in detergent (0.25% CHAPSO) and incubated with the APP substrate. The Abeta peptides which are produced by γ-secretase cleavage of the substrate are detected by specific ELISA assays as described (Brockhaus M et al, Neuroreport 9(7), 1481-1486 (1998).

Data set [1] can be described thus: THESA assay for determination of the thermodynamic solubility. In kind it is physicochemical. The note with it: 22.5 °C, aqueous buffer, thermodynamic from solid, second figure of the cell. As to the method: In addition, the compounds of the present invention have been tested in a THESA assay for determination of the thermodynamic solubility.
Approximately 2 mg of each compound was added in excess to a 50 mM phosphate buffer, at room temperature (22.5±1° C.). Each sample was placed in a microanalysis tube, which was sonicated for 1 h and agitated for 2 h. All suspensions were left overnight. At the next day all pHs were measured with a pH-meter and the samples filtered with a micronic filterplate (MSGVN2250) to separate the solid material from the solution. Then, all solutions were analyzed by HPLC. The calibration line was established by different concentrations of the compound in DMSO. From this regression equation the solubility of the compound was determined.

Where [2] appears, read: 50 mM phosphate buffer, room temperature (22.5±1° C.), read-out: THESA (IC50/THESA, Example No. present appl.).
The mark [3] stands for this setting: comparison compounds from WO 2005/023772, 50 mM phosphate buffer, room temperature, read-out: THESA (IC50/THESA, Corresponding Example from WO 2005/023772).

The structures appear in SMILES notation. Converted amounts (≈) assume the structure as drawn. Read-outs that look alike come from different tables or passages of the source.

As to `C[C@](O)(C(=O)NCC(F)(F)F)C(=O)N[C@@H]1C(=O)Nc2ccccc2-c2ccccc21` [Example 3b, (S)-2-Hydroxy-2-methyl-N-((S)-6-oxo-6,7-dihydro-5H-dibenzo[b,d]azepin-7-yl)-N′-(2,2,2-trifluoro-ethyl)-malonamide], on γ-secretase, the Comments result is “Higher potency, higher solubility”. The solubility thermodynamic in data set [1] (setting [2]) is 0.026 mg/mL (≈ 61.7 µM).
Turning to `C[C@](O)(C(=O)NCC(F)(F)C(F)(F)F)C(=O)N[C@@H]1C(=O)Nc2ccccc2-c2ccccc21` [Example 1c, (S)-2-Hydroxy-2-methyl-N-((S)-6-oxo-6,7-dihydro-5H-dibenzo[b,d]azepin-7-yl)-N′-(2,2,3,3,3-pentafluoro-propyl)-malonamide], the solubility thermodynamic in data set [1] (setting [2]) stood at 0.014 mg/mL (≈ 29.7 µM).
As to `C[C@](F)(C(=O)NCC(F)(F)C(F)(F)F)C(=O)N[C@H]1C(=O)Nc2ccccc2-c2ccccc21` [reference compound], in data set [1] (setting [3]), the solubility thermodynamic is less than 0.001 mg/mL.
`C[C@@](F)(C(=O)NCC(F)(F)C(F)(F)F)C(=O)N[C@H]1C(=O)Nc2ccccc2-c2ccccc21` [reference compound]: in data set [1] (setting [3]), the solubility thermodynamic is less than 0.001 mg/mL.
With `CC(O)(C(=O)NCC(F)(F)C(F)(F)F)C(=O)N[C@@H]1C(=O)N(CC(F)(F)F)c2ccccc2-c2ccccc21` (mixture of isomers) [Example 12a], on γ-secretase, the Comments entry is recorded as “Higher potency”.
`CCCC(C)(C(=O)NCCC(F)(F)F)C(=O)N[C@H]1C(=O)Nc2ccccc2-c2ccccc21` (stereo partly shown) [reference compound]: the “IC50 (IC50/THESA, Corresponding Example from WO 2005/023772)” value at γ-secretase (first figure of the cell, comparison compounds from WO 2005/023772) is “nearly inactive/—”.
For the compound `CC(C)(C(=O)NCCC(F)(F)F)C(=O)N[C@H]1C(=O)Nc2ccccc2-c2ccccc21` [reference compound], the solubility thermodynamic in data set [1] (setting [3]) is less than 0.001 mg/mL.
Regarding `C[C@](O)(C(=O)NCCC(F)(F)F)C(=O)N[C@@H]1C(=O)Nc2ccccc2-c2ccccc21` [Example 2c, (S)-2-Hydroxy-2-methyl-N-((S)-6-oxo-6,7-dihydro-5H-dibenzo[b,d]azepin-7-yl)-N′-(3,3,3-trifluoro-propyl)-malonamide], on γ-secretase, the Comments entry is “Higher potency, higher solubility”. For the same compound, the solubility thermodynamic in data set [1] (setting [2]) worked out at 0.127 mg/mL (≈ 292 µM).
As for `CCCC(O)(C(N)=O)C(=O)N(CCC(F)(F)F)[C@@H]1C(=O)Nc2ccccc2-c2ccccc21` (single isomer, unassigned) [Example 6g, (R or S)-2-Hydroxy-N-((S)-6-oxo-6,7-dihydro-5H-dibenzo[b,d]azepin-7-yl)-2-propyl-N-(3,3,3-trifluoro-propyl)-malonamide], the Comments entry on γ-secretase is on record as “Higher potency”.
For the compound `C[C@@](O)(C(=O)NCC(F)(F)C(F)(F)F)C(=O)N[C@@H]1C(=O)Nc2ccccc2-c2ccccc21` [Example 1b, (R)-2-Hydroxy-2-methyl-N-((S)-6-oxo-6,7-dihydro-5H-dibenzo[b,d]azepin-7-yl)-N′-(2,2,3,3,3-pentafluoro-propyl)-malonamide], in data set [1] (setting [2]), the solubility thermodynamic was 0.019 mg/mL (≈ 40.3 µM).
In the case of `CC(C)(C(=O)NCC(F)(F)F)C(=O)N[C@H]1C(=O)Nc2ccccc2-c2ccccc21` [reference compound], the solubility thermodynamic in data set [1] (setting [3]) turned out to be 0.016 mg/mL (≈ 38.1 µM).
Consider `CCCC(O)(C(=O)NCCC(F)(F)F)C(=O)N[C@@H]1C(=O)Nc2ccccc2-c2ccccc21` (mixture of isomers) [Example 6a], for which, at γ-secretase, the Comments entry is “Higher potency”.
Consider `C[C@](O)(C(=O)NCC(F)(F)F)C(=O)N[C@@H]1C(=O)N(CC(F)(F)F)c2ccccc2-c2ccccc21` [Example 13b, (S)-2-Hydroxy-2-methyl-N-[(S)-6-oxo-5-(2,2,2-trifluoro-ethyl)-6,7-dihydro-5H-dibenzo[b,d]azepin-7-yl]-N′-(2,2,2-trifluoro-ethyl)-malonamide], for which the Comments entry at γ-secretase was “Higher potency”. The solubility thermodynamic in data set [1] (setting [2]) is 0.014 mg/mL (≈ 27.8 µM).

For the origin of these results see patent publication US7544679B2 (Hoffman-La Roche Inc., priority 2007, dated 2009).
